In patent US10080366B2, “Agent for increasing sugar content in fruit” (RIKEN, priority 2012, dated 2018):
Read-outs that look alike come from different tables or passages of the source.

Tests used:
Pinot noir = assay: Acceptability of fruit for wine (Example 11); format: in vivo, grape; conditions: Example 1 sample
Excerpt: As in the case where agriculture workers check whether or not a berry can be used for wine, the criteria of the acceptability were based the appearance (appearance associated with mold, rot, or the like, whether or not the fruit juice or fruit pulp was lost, and the like), taste (whether or not the berry was normal, when eaten, and the like), and odor (whether or not a foreign odor or the like was present). A berry having no problem in terms of any of the appearance, taste, and odor was determined to be acceptable, and a berry having any problem was determined to be not acceptable.

[1] = tested on: grapes (varieties: Chardonnay, Pinot noir, Merlot, and Cabernet Sauvignon); conditions: for sugar content in fruit compared with untreated: 3000 L/ha, entire vines, repeated, all four varieties
Description: To the entire vines including leaves and stems of grapes (varieties: Chardonnay, Pinot noir, Merlot, and Cabernet Sauvignon, 7 years old) in a farm field, an agent (containing Sorbon T-20 as a spreader/sticker at a concentration of 200 μL/L) for increasing a sugar content in a fruit diluted with water to have a potassium hydrogen carbonate concentration of 5 g/L or 10 g/L was applied in a sufficient amount (3000 L/ha (in this case, the amount of potassium hydrogen carbonate was 15 kg/ha for the 5 g/L sample or 30 kg/ha for the 10 g/L sample) each time. The application was repeatedly conducted at intervals of approximately 2 weeks or approximately 1 week as shown in FIGS. 1 to 4. The sugar concentration in the fruit was measured over time. As a control, unapplied vines were provided. The sampling was started before the first application, and a sample was collected before each application, and measured for the sugar content. Three vines were used for each treated group. Note that the expected harvest dates were September 20 for Chardonnay, October 10 for Merlot, October 20 for Cabernet Sauvignon, and September 30 for Pinot noir.
For the measurement of the sugar content, three clusters were taken from each of the treated vines on each of the dates of measurement, and the juice was squeezed and measured for the Brix sugar content (%) with a refractometer for sugar content (manufactured by Atago Co., Ltd.). Likewise, the acidity (%) was also measured with an acidity meter (manufactured by Atago Co., Ltd.).

Cherry (Sato Nishiki) = conditions: 5 g/L, three times at intervals of 7 days; 28 days after first application
Excerpt: The water-soaked symptom in cherry is known to be caused by calcium deficiency. In this respect, an investigation was made as to whether or not the degree of occurrence of water-soaked symptom 28 days after the date of the first application was different between untreated cherries and cherries to which an aqueous potassium hydrogen carbonate solution (5 g/L) was applied three times at intervals of 7 days one month before the harvest time. […] The occurrence (%) of water-soaked symptom=the number of cherries in which the water-soaked symptom occurred/the number of cherries tested×100

Mikan = conditions: dilution ratio 100 (10 g/L); 6 days after treatment
[2] = tested on: fruit of grape (variety: Red Globe)
Description: Agents for increasing a sugar content in a fruit (containing Sorbon T-20 as a spreader/sticker at a final concentration of 200 μL/L) diluted with water to have the concentrations of potassium hydrogen carbonate shown in Table 4 were prepared. The mass of fruit of grape (variety: Red Globe) purchased on the market was measured. Then, the prepared agents for increasing a sugar content in a fruit were applied by spraying to the fruit of grape, which was then allowed to stand in an air-conditioned greenhouse (temperature: 25° C.). The mass of the fruit of grape was measured over time (date of application: Mar. 10, 2011). In addition, as a control, the mass of untreated grape was measured on each date of measurement in the same manner. […] Note that the decrease ratio (cumulative, %) represents the percentage (%) of the mass decreased from the date of application to each of the dates of measurement, and the decrease ratio (%/day) represents the average ratio (%) of decrease in mass in a period between each of the dates of measurement and the preceding date of measurement (=(the mass (g) on the preceding date of measurement of each of the dates of measurement−the mass (g) on the date of measurement)/the mass (g) on the preceding date of measurement of the date of measurement/the number of days from the preceding date of measurement of the date of measurement to the date of measurement×100).

For `O=C([O-])O.[K+]` [Potassium hydrogen carbonate, potassium hydrogen carbonate], the “Acceptable ratio (%) of fruit” value (Pinot noir; 5 g/L) was 75%, the “Acceptable ratio (%) of fruit” value (Pinot noir; 10 g/L) was 80% and the “acidity compared with untreated” value ([1]; 5 g/L or 10 g/L) was “kept equal to or slightly higher than that of the untreated group”. For the same compound, the “sugar content in fruit compared with untreated” value ([1]; 5 g/L) was “greater increase in sugar content than the untreated fruit of grape”, the “sugar content in fruit compared with untreated” value ([1]; 10 g/L) was “greater increase in sugar content than the untreated fruit of grape” and the “Occurrence (%) of water-soaked symptom” value (Cherry (Sato Nishiki)) was 7%. For the same compound, the “Ratio (%) of decrease in body weight of fruit” value (Mikan) was 12.6%, the “ratio of decrease in mass compared with untreated” value ([2]; 5 g/L and 10 g/L) was “higher ratios of decrease in mass than the untreated fruit” and the “Mass” value ([2]; 5 g/L, Mar. 10 (date of application)) was 240.4 g. For the same compound, the “Decrease ratio (%/day)” value ([2]; 5 g/L, Mar. 11) was 2.6 %/day, the “Decrease ratio (cumulative %)” value ([2]; 5 g/L, Mar. 11) was 2.6% and the “Mass” value ([2]; 5 g/L, Mar. 11) was 234.1 g. For the same compound, the “Decrease ratio (%/day)” value ([2]; 5 g/L, Mar. 14) was 2.5 %/day, the “Decrease ratio (cumulative %)” value ([2]; 5 g/L, Mar. 14) was 9.9% and the “Mass” value ([2]; 5 g/L, Mar. 14) was 216.7 g. For the same compound, the “Decrease ratio (%/day)” value ([2]; 5 g/L, Mar. 15) was 2.5 %/day, the “Decrease ratio (cumulative %)” value ([2]; 5 g/L, Mar. 15) was 12.1% and the “Mass” value ([2]; 5 g/L, Mar. 15) was 211.4 g. For the same compound, the “Decrease ratio (%/day)” value ([2]; 5 g/L, Mar. 16) was 2.2 %/day, the “Decrease ratio (cumulative %)” value ([2]; 5 g/L, Mar. 16) was 14.0% and the “Mass” value ([2]; 5 g/L, Mar. 16) was 206.7 g. For the same compound, the “Decrease ratio (%/day)” value ([2]; 5 g/L, Mar. 18) was 2.1 %/day, the “Decrease ratio (cumulative %)” value ([2]; 5 g/L, Mar. 18) was 17.7% and the “Mass” value ([2]; 5 g/L, Mar. 18) was 197.8 g. The “Decrease ratio (%/day)” value ([2]; 5 g/L, Mar. 22) was 2.0 %/day, the “Decrease ratio (cumulative %)” value ([2]; 5 g/L, Mar. 22) was 24.1% and the “Mass” value ([2]; 5 g/L, Mar. 22) was 182.4 g. For the same compound, the “Decrease ratio (%/day)” value ([2]; 5 g/L, Mar. 23) was 2.8 %/day, the “Decrease ratio (cumulative %)” value ([2]; 5 g/L, Mar. 23) was 26.3% and the “Mass” value ([2]; 5 g/L, Mar. 23) was 177.3 g. The “Decrease ratio (%/day)” value ([2]; 5 g/L, Mar. 24) was 2.2 %/day, the “Decrease ratio (cumulative %)” value ([2]; 5 g/L, Mar. 24) was 27.8% and the “Mass” value ([2]; 5 g/L, Mar. 24) was 173.5 g. For the same compound, the “Decrease ratio (%/day)” value ([2]; 5 g/L, Mar. 30) was 2.3 %/day, the “Decrease ratio (cumulative %)” value ([2]; 5 g/L, Mar. 30) was 37.8% and the “Mass” value ([2]; 5 g/L, Mar. 30) was 149.4 g. The “Mass” value ([2]; 10 g/L, Mar. 10 (date of application)) was 200.5 g, the “Decrease ratio (%/day)” value ([2]; 10 g/L, Mar. 11) was 2.9 %/day and the “Decrease ratio (cumulative %)” value ([2]; 10 g/L, Mar. 11) was 2.9%. For the same compound, the “Mass” value ([2]; 10 g/L, Mar. 11) was 194.8 g, the “Decrease ratio (%/day)” value ([2]; 10 g/L, Mar. 14) was 3 %/day and the “Decrease ratio (cumulative %)” value ([2]; 10 g/L, Mar. 14) was 11.6%. For the same compound, the “Mass” value ([2]; 10 g/L, Mar. 14) was 177.2 g, the “Decrease ratio (%/day)” value ([2]; 10 g/L, Mar. 15) was 3.3 %/day and the “Decrease ratio (cumulative %)” value ([2]; 10 g/L, Mar. 15) was 14.5%. The “Mass” value ([2]; 10 g/L, Mar. 15) was 171.4 g, the “Decrease ratio (%/day)” value ([2]; 10 g/L, Mar. 16) was 2.9 %/day and the “Decrease ratio (cumulative %)” value ([2]; 10 g/L, Mar. 16) was 17.0%. For the same compound, the “Mass” value ([2]; 10 g/L, Mar. 16) was 166.5 g, the “Decrease ratio (%/day)” value ([2]; 10 g/L, Mar. 18) was 2.7 %/day and the “Decrease ratio (cumulative %)” value ([2]; 10 g/L, Mar. 18) was 21.5%. For the same compound, the “Mass” value ([2]; 10 g/L, Mar. 18) was 157.4 g, the “Decrease ratio (%/day)” value ([2]; 10 g/L, Mar. 22) was 2.5 %/day and the “Decrease ratio (cumulative %)” value ([2]; 10 g/L, Mar. 22) was 29.5%. For the same compound, the “Mass” value ([2]; 10 g/L, Mar. 22) was 141.3 g, the “Decrease ratio (%/day)” value ([2]; 10 g/L, Mar. 23) was 3.6 %/day and the “Decrease ratio (cumulative %)” value ([2]; 10 g/L, Mar. 23) was 32.0%. For the same compound, the “Mass” value ([2]; 10 g/L, Mar. 23) was 136.3 g, the “Decrease ratio (%/day)” value ([2]; 10 g/L, Mar. 24) was 2.8 %/day and the “Decrease ratio (cumulative %)” value ([2]; 10 g/L, Mar. 24) was 33.9%. For the same compound, the “Mass” value ([2]; 10 g/L, Mar. 24) was 132.5 g, the “Decrease ratio (%/day)” value ([2]; 10 g/L, Mar. 30) was 2.9 %/day and the “Decrease ratio (cumulative %)” value ([2]; 10 g/L, Mar. 30) was 45.3%. The “Mass” value ([2]; 10 g/L, Mar. 30) was 109.7 g.
